In the NIST ThermoML archive (doi:10.1016/j.jct.2009.03.007):
Numbers after ± are expanded uncertainties.

Tests used:
[1] = molar enthalpy of vaporization or sublimation; conditions: 298.15 K; Liquid; Calvet microcalorimetry
[2] = 298.15 K; Liquid; Calvet microcalorimetry

| Structure (SMILES) | molar enthalpy [1] [kcal/mol] | molar enthalpy of vaporization [2] [kcal/mol] |
| --- | --- | --- |
| CCOC(=O)Cc1cccs1 [ethyl 2-thiopheneacetate] | 14.8 ± 0.621 |  |
| CCOC(=O)c1cccs1 [ethyl 2-thiophenecarboxylate] |  | 13.5 ± 0.621 |
| CCOC(=O)Cc1ccsc1 [ethyl 3-thiopheneacetate] | 15.1 ± 0.621 |  |
| COC(=O)c1cccs1 [methyl 2-thiophenecarboxylate] |  | 13.8 ± 0.574 |
